Assays:
[1] = system: ECHCG; assay: Postemergence foliar-applied weed control, direct seeded rice (greenhouse); type: in vivo, Echinochloa crusgalli (L.) Beauv.; conditions: 70 gai/ha
Excerpt: (§1) Seeds or nutlets of the desired test plant species were planted in a soil matrix prepared by mixing a loam or sandy loam soil (e.g., 28.6 percent silt, 18.8 percent clay, and 52.6 percent sand, with a pH of about 5.8 and an organic matter content of about 1.8 percent) and calcareous grit in an 80 to 20 ratio. The soil matrix was contained in plastic pots with a volume of 1 quart and a surface area of 83.6 square centimeters (cm^2). When required to ensure good germination and healthy plants, a fungicide treatment and/or other chemical or physical treatment was applied. The plants were grown for 8-22 days in a greenhouse with an approximate 14 hr photoperiod which was maintained at about 29° C. during the day and 26° C. during the night. Nutrients (Peters Excel® 15-5-15 5-Ca 2-Mg and iron chelate) were applied in the irrigation solution as needed and water was added on a regular basis. Supplemental lighting was provided with overhead metal halide 1000-Watt lamps as necessary. The plants were employed for testing when they reached the first through fourth true leaf stage. […]
(§2) Treatment requirements were calculated based upon the rates being tested, the concentration of active ingredient or acid equivalent in the formulation, and a 12 mL application volume at a rate of 187 L/ha.
(§3) For treatments comprised of formulated compounds, measured amounts of compounds were placed individually in 25 mL glass vials and diluted in a volume of 1.25% (v/v) Agri-Dex® crop oil concentrated to obtain 12× stock solutions. […]
(§4) For treatments comprised of formulated and technical compounds, weighed amounts of the technical materials were placed individually in 25 mL glass vials and dissolved in a volume of 97:3 v/v acetone/DMSO to obtain 12× stock solutions, and measured amounts of the formulated compounds were placed individually in 25 mL glass vials and diluted in a volume of 1.5% (v/v) crop oil concentrate or water to obtain 12× stock solutions. […]

[2] = system: LEFCH; assay: as above; type: in vivo, Leptochloa chinensis (L.) Nees
Excerpt: (§5) Seeds or nutlets of the desired test plant species were planted in a soil matrix prepared by mixing a loam or sandy loam soil (e.g., 28.6 percent silt, 18.8 percent clay, and 52.6 percent sand, with a pH of about 5.8 and an organic matter content of about 1.8 percent) and calcareous grit in an 80 to 20 ratio. The soil matrix was contained in plastic pots with a volume of 1 quart and a surface area of 83.6 square centimeters (cm^2). When required to ensure good germination and healthy plants, a fungicide treatment and/or other chemical or physical treatment was applied. The plants were grown for 8-22 days in a greenhouse with an approximate 14 hr photoperiod which was maintained at about 29° C. during the day and 26° C. during the night. Nutrients (Peters Excel® 15-5-15 5-Ca 2-Mg and iron chelate) were applied in the irrigation solution as needed and water was added on a regular basis. Supplemental lighting was provided with overhead metal halide 1000-Watt lamps as necessary. The plants were employed for testing when they reached the first through fourth true leaf stage.
(§6) Treatments consisted of the acid or esters of 4-amino-3-chloro-5-fluoro-6-(4-chloro-2-fluoro-3-methoxy-phenyl)pyridine-2-carboxylic acid (Compound A), each formulated as an SC (suspension concentrate), and various herbicidal components alone and in combination. Forms of compound A were applied on an acid equivalent basis.
(§7) Other herbicidal components were applied on an active ingredient basis and included the dimethoxy-pyrimidine acid acetolactate synthase (ALS)-inhibiting herbicides bispyribac-sodium formulated as Regiment® 80WP, pyribenzoxim (technical grade material), pyriminobac-methyl formulated as Hie-Clean® 1.2% GR dissolved in water, and pyriftalid (technical grade material).
as §2
(§8) For treatments comprised of formulated compounds, measured amounts of compounds were placed individually in 25 mL glass vials and diluted in a volume of 1.25% (v/v) Agri-Dex® crop oil concentrated to obtain 12× stock solutions. […] Application solutions were prepared by adding an appropriate amount of each stock solution (e.g., 1 mL) and diluted to the appropriate final concentrations with the addition of 10 mL of an aqueous mixture of 1.25% (v/v) crop oil concentrate so that the final spray solutions contained 1.25+/−0.005% (v/v) crop oil concentrate.
(§9) For treatments comprised of technical compounds, weighed amounts can be placed individually in 25 mL glass vials and dissolved in a volume of 97:3 v/v acetone/DMSO to obtain 12× stock solutions. […] Application solutions can be prepared by adding an appropriate amount of each stock solution (e.g., 1 mL) and diluted to the appropriate final concentrations with the addition of 10 mL of an aqueous mixture of 1.5% (v/v) crop oil concentrate so that the final spray solutions contain 1.25% (v/v) crop oil concentrate. When technical materials are used, the concentrated stock solutions can be added to the spray solutions so that the final acetone and DMSO concentrations of the application solutions are 16.2% and 0.5%, respectively.
as §4

[3] = system: BRAPP; assay: as above; type: in vivo, Brachiaria platyphylla (Griseb.) Nash
Excerpt: as §1, §2, §3, §4

[4] = system: CYPRO; assay: In-water applied weed control, transplanted paddy rice (greenhouse); type: in vivo, Cyperus rotundus L.
Method: (§10) Weed seeds or nutlets of the desired test plant species were planted in puddled soil (mud) prepared by mixing a shredded, non-sterilized mineral soil (50.5 percent silt, 25.5 percent clay, and 24 percent sand, with a pH of about 7.6 and an organic matter content of about 2.9 percent) and water at a 1:1 volumetric ratio. The prepared mud was dispensed in 365 mL aliquots into 16-ounce (oz.) non-perforated plastic pots with a surface area of 86.59 square centimeters (cm^2) leaving a headspace of 3 centimeters (cm) in each pot. Mud was allowed to dry overnight prior to planting or transplanting. Rice seeds were planted in Sun Gro MetroMix® 306 planting mixture, which typically has a pH of 6.0 to 6.8 and an organic matter content of about 30 percent, in plastic plug trays. Seedlings at the second or third leaf stage of growth were transplanted into 860 mL of mud contained in 32-oz. non-perforated plastic pots with a surface area of 86.59 cm^2 4 days prior to herbicide application. The paddy was created by filling the headspace of the pots with 2.5 to 3 cm of water. When required to ensure good germination and healthy plants, a fungicide treatment and/or other chemical or physical treatment was applied. The plants were grown for 4-22 days in a greenhouse with an approximate 14 hr photoperiod which was maintained at about 29′C during the day and 26° C. during the night. Nutrients were added as Osmocote® (19:6:12, N:P:K+minor nutrients) at 2 g per 16-oz. pot and 4 g per 32-oz. pot. Water was added on a regular basis to maintain the paddy flood, and supplemental lighting was provided with overhead metal halide 1000-Watt lamps as necessary. The plants were employed for testing when they reached the first through fourth true leaf stage.
(§11) Treatments consisted of the acid or esters of 4-amino-3-chloro-5-fluoro-6-(4-chloro-2-fluoro-3-methoxy-phenyl)pyridine-2-carboxylic acid (compound A) each formulated as an SC and various herbicidal components alone and in combination. Forms of compound A were applied on an acid equivalent basis.
(§12) Other herbicidal components were applied on an active ingredient basis and included the dimethoxy-pyrimidine acid acetolactate synthase (ALS)-inhibiting herbicides bispyribac-sodium formulated as Regiment® 80 WP, pyriminobac-methyl formulated as Hie Clean®, and pyriftalid (technical grade material).
(§13) Treatment requirements for each compound or herbicidal component were calculated based upon the rates being tested, the concentration of active ingredient or acid equivalent in the formulation, an application volume of 2 mL per component per pot, and an application area of 86.59 cm^2 per pot.
(§14) For formulated compounds, a measured amount was placed in an individual 100 or 200 mL glass vial and was dissolved in a volume of 1.25% (v/v) Agri-Dex® crop oil concentrate to obtain application solutions.
(§15) For technical grade compounds, a weighed amount was placed in an individual 100 to 200 mL glass vial and was dissolved in a volume of acetone to obtain concentrated stock solutions. […] The concentrated stock solutions obtained were diluted with an equivalent volume of an aqueous mixture containing 2.5% (v/v) crop oil concentrate so that the final application solutions contained 1.25% (v/v) crop oil concentrate.
(§16) Applications were made by injecting with a pipetter appropriate amounts of the application solutions, individually and sequentially, into the aqueous layer of the paddy.
(§17) Control plants were treated in the same manner with the solvent blank. Applications were made so that all treated plant material received the same concentrations of acetone and crop oil concentrate.
(§18) The treated plants and control plants were placed in a greenhouse as described above and water was added as needed to maintain a paddy flood. […]

[5] = system: FIMMI; assay: as above; type: in vivo, Fimbristylis miliacea (L.) Vahl
Method: as §10, §11, §12, §13, §14, §15, §16, §17, §18

[6] = system: DIGSA; assay: Postemergence foliar-applied weed control, direct seeded rice (greenhouse); type: in vivo, Digitaria sanguinalis (L.) Scop.
Excerpt: as §5, §6, §7, §2, §8
as §9, with “When technical materials are used, the concentrated stock solutions can be added to the spray solutions so that the final acetone and DMSO concentrations of the application solutions are 16.2% and 0.5%, respectively.” left out
as §4

[7] = system: IPOHE; assay: as above; type: in vivo, Ipomoea hederacea Jacq.
Excerpt: as §5, §6, §7, §2, §8, §9, §4

[8] = system: LEFCH; assay: In-water applied weed control, transplanted paddy rice (greenhouse); type: in vivo, Leptochloa chinensis (L.) Nees; conditions: 45 gai/ha
Method: as §10, §11, §12, §13, §14, §15, §16
Control plants were treated in the same manner with the solvent blank. […]

[9] = system: SCPMA; assay: as above; type: in vivo, Bolboschoenus maritimus (L.) Palla; conditions: for Visual Weed Control (%)-20 DAA SCPMA Obs: 90 gai/ha
Method: as §10, §11, §12, §13, §14, §15, §16, §17, §18

[10] = system: ECHCO; assay: as above; type: in vivo, Echinochloa colona (L.) Link; conditions: 22.5 gai/ha
Method: as §10, with “Water was added on a regular basis to maintain the paddy flood, and supplemental lighting was provided with overhead metal halide 1000-Watt lamps as necessary. The plants were employed for testing when they reached the first through fourth true leaf stage.” left out
as §13
For formulated compounds, a measured amount was placed in an individual 100 or 200 mL glass vial and was dissolved in a volume of 1.25% (v/v) Agri-Dex® crop oil concentrate to obtain application solutions. […]

COc1cc(OC)nc(Oc2cccc(Oc3nc(OC)cc(OC)n3)c2C(=O)ON=C(c2ccccc2)c2ccccc2)n1 [Pyribenzoxim, diphenylmethanone O-[2,6-bis[(4,6-dimethoxy-2-pyrimidinyl)oxy]benzoyl]oxime, reference compound]
Visual Weed Control (%) - 20 DAA ECHCG Obs [1]: 85%

COc1cc(OC)nc(Sc2cccc3c2C(=O)OC3C)n1 (centres unmarked) [Pyriftalid, 7-[(4,6-dimethoxy-2-pyrimidinyl)thio]-3-methyl-1 (3H)-isobenzofuranone, reference compound]
Visual Weed Control (%)-22 DAA LEFCH Obs ([2]; 45 gai/ha): 0% | Visual Weed Control (%)-22 DAA LEFCH Obs ([2]; 90 gai/ha): 0% | Visual Weed Control (%)-22 DAA BRAPP Obs ([3]; 45 gai/ha): 0% | Visual Weed Control (%)-22 DAA BRAPP Obs ([3]; 90 gai/ha): 0% | Visual Weed Control (%)-21 DAA CYPRO Obs ([4]; 45 gai/ha, Table 12): 0% | Visual Weed Control (%)-21 DAA CYPRO Obs ([4]; 45 gai/ha, Table 13): 0% | Visual Weed Control (%)-21 DAA CYPRO Obs ([4]; 90 gai/ha, Table 12): 0% | Visual Weed Control (%)-21 DAA CYPRO Obs ([4]; 90 gai/ha, Table 13): 0% | Visual Weed Control (%)-21 DAA FIMMI Obs ([5]; 45 gai/ha): 50% | Visual Weed Control (%)-21 DAA FIMMI Obs ([5]; 90 gai/ha): 30%

CO/N=C(\C)c1cccc(Oc2nc(OC)cc(OC)n2)c1C(=O)OC [Pyriminobac-methyl, methyl 2-[(4,6-dimethoxy-2-pyrimidinyl)oxy]-6-[1-(methoxyimino)ethyl]benzoate, reference compound]
Visual Weed Control (%)-24 DAA LEFCH Obs ([2]; 11.25 gai/ha): 0% | Visual Weed Control (%)-24 DAA LEFCH Obs ([2]; 22.5 gai/ha): 0% | Visual Weed Control (%)-24 DAA DIGSA Obs ([6]; 11.25 gai/ha): 0% | Visual Weed Control (%)-24 DAA DIGSA Obs ([6]; 22.5 gai/ha): 0% | Visual Weed Control (%)-24 DAA IPOHE Obs ([7]; 11.25 gai/ha): 10% | Visual Weed Control (%)-24 DAA IPOHE Obs ([7]; 11.25 gai/ha, Table 4): 10% | Visual Weed Control (%)-24 DAA IPOHE Obs ([7]; 22.5 gai/ha): 10% | Visual Weed Control (%)-24 DAA IPOHE Obs ([7]; 22.5 gai/ha, Table 4): 10% | Visual Weed Control (%)-21 DAA IPOHE Obs ([7]; 90 gai/ha): 20% | Visual Weed Control (%)-24 DAA IPOHE Obs ([7]; 90 gai/ha, second part of Table 3): 20% | Visual Weed Control (%)-21 DAA LEFCH Obs [8]: 80% | Visual Weed Control (%)-21 DAA SCPMA Obs ([9]; 22.5 gai/ha, Table 10): 0% | Visual Weed Control (%)-21 DAA SCPMA Obs ([9]; 22.5 gai/ha, Table 11): 0% | Visual Weed Control (%)-21 DAA SCPMA Obs ([9]; 45 gai/ha, Table 10): 0% | Visual Weed Control (%)-21 DAA SCPMA Obs ([9]; 45 gai/ha, Table 11): 0% | Visual Weed Control (%)-20 DAA SCPMA Obs ([9]; Table 10): 43% | Visual Weed Control (%)-20 DAA SCPMA Obs ([9]; Table 11): 43% | Visual Weed Control (%)-21 DAA CYPRO Obs ([4]; 22.5 gai/ha): 0% | Visual Weed Control (%)-21 DAA ECHCO Obs [10]: 40% | Visual Weed Control (%)-21 DAA FIMMI Obs ([5]; 22.5 gai/ha): 0% | Visual Weed Control (%)-21 DAA FIMMI Obs ([5]; 45 gai/ha): 0%

Reference: patent publication US8871680B2, “Herbicidal compositions comprising 4-amino-3-chloro-5-fluoro-6-(4-chloro-2-fluoro-3-methoxyphenyl) pyridine-2-carboxylic acid or a derivative thereof and a di-methoxy-pyrimidine and derivatives thereof” (Dow AgroSciences LLC, priority 2012, dated 2014)
